Source: ChEMBL document CHEMBL5096214, “Discovery of a new class of valosine containing protein (VCP/P97) inhibitors for the treatment of colorectal cancer” (Bioorg Med Chem, 2022)
Activity calls are given as the source filed them. The rule behind the calls is not given here.

How the values were obtained:
[1] = molecular target: Transitional endoplasmic reticulum ATPase (Homo sapiens, UniProt P55072); experiment: Inhibition of p97 (unknown origin) using ATP as substrate incubated for 60 mins by ADP-Glo reagent based luminescence assay
Sequence of Transitional endoplasmic reticulum ATPase (P55072 whole entry): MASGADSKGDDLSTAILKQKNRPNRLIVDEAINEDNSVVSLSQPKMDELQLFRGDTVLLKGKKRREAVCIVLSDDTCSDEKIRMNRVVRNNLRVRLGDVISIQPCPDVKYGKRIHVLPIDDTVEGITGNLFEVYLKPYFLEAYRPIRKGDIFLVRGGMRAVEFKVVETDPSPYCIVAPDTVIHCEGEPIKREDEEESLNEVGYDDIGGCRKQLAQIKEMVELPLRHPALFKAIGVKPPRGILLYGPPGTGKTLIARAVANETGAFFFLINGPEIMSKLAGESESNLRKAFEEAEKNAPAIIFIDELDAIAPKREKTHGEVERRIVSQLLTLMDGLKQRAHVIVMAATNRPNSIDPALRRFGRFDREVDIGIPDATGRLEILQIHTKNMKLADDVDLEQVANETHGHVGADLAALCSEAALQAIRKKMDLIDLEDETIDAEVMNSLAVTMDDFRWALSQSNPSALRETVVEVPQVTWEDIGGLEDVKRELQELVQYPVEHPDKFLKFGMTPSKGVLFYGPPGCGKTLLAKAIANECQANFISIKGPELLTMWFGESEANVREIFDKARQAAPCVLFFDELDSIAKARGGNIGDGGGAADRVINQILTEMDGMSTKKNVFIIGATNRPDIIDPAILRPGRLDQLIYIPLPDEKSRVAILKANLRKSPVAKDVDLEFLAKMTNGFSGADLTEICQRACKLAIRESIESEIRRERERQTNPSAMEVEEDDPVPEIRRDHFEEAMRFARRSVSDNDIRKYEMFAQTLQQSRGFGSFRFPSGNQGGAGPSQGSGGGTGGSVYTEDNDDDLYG

HCT-116 [2] = experiment: Anti-proliferative activity against human HCT-116 cells assessed as inhibition of cell proliferation incubated for 72 hrs by CellTiter-Glo luminescent assay; type: functional, cell-based; details: HCT-116, 72 h
[3] = AUC (0 to t) in Sprague-Dawley rat at 10 mg/kg, po measured for 30 hrs by LC-MS/MS analysis; type: ADME, organism-based; parameters: dose 10 mg/kg, time 30 hrs, route po; details: in vivo
[4] = AUC (0 to t) in Sprague-Dawley rat at 1 mg/kg, iv measured for 24 hrs by LC-MS/MS analysis; type: ADME, organism-based; parameters: time 24 hrs, dose 1 mg/kg, route iv; details: in vivo
[5] = Half life in dog liver microsomes at 1 uM in presence of beta-NADPH measured for 60 mins by LC-MS/MS analysis; type: ADME, Canis lupus familiaris, Microsome
[6] = Intrinsic clearance in dog liver microsomes at 1 uM in presence of beta-NADPH measured for 60 mins by LC-MS/MS analysis; type: ADME, Canis lupus familiaris, Microsome; details: read-out: CLH
[7] = Intrinsic clearance in monkey liver microsomes at 1 uM in presence of beta-NADPH measured for 60 mins by LC-MS/MS analysis; type: ADME, Macaca mulatta, Microsome; details: rhesus monkey, read-out: CLH
[8] = AUC (0 to infinity) in Sprague-Dawley rat at 1 mg/kg, iv by LC-MS/MS analysis; type: ADME, organism-based; parameters: time infinity, dose 1 mg/kg, route iv; details: in vivo
[9] = Intrinsic clearance in mouse liver microsomes at 1 uM in presence of beta-NADPH measured for 60 mins by LC-MS/MS analysis; type: ADME, Microsome; details: read-out: CLH
[10] = Toxicity in BALB/c mouse xenografted with human HCT-116 cells assessed as side effects at 100 mg/kg, po qd for 21 days; type: organism-based; details: in vivo, 504 h, time 21 day
[11] = Intrinsic clearance in human liver microsomes at 1 uM in presence of beta-NADPH measured for 60 mins by LC-MS/MS analysis; type: ADME, Microsome; details: read-out: CLH
[12] = Tmax in Sprague-Dawley rat at 1 mg/kg, iv measured for 24 hrs by LC-MS/MS analysis; type: ADME, organism-based; details: in vivo
[13] = Elimination half life in Sprague-Dawley rat at 1 mg/kg, iv measured for 24 hrs by LC-MS/MS analysis; type: ADME, organism-based; details: in vivo, read-out: beta t1/2 (converted)
[14] = Toxicity in BALB/c mouse xenografted with human HCT-116 cells assessed as body weight loss at 100 mg/kg, po qd for 21 days; type: organism-based; details: in vivo, 504 h, time 21 day
[15] = Half life in monkey liver microsomes at 1 uM in presence of beta-NADPH measured for 60 mins by LC-MS/MS analysis; type: ADME, Macaca mulatta, Microsome; details: rhesus monkey
[16] = MRT in Sprague-Dawley rat at 1 mg/kg, iv measured for 24 hrs by LC-MS/MS analysis; type: ADME, organism-based; details: in vivo
[17] = AUC (0 to infinity) in Sprague-Dawley rat at 10 mg/kg, po by LC-MS/MS analysis; type: ADME, organism-based; parameters: time infinity, dose 10 mg/kg, route po; details: in vivo
[18] = Cmax in Sprague-Dawley rat at 10 mg/kg, po measured for 30 hrs by LC-MS/MS analysis; type: ADME, organism-based; parameters: dose 10 mg/kg, time 30 hrs, route po; details: in vivo
[19] = Half life in mouse liver microsomes at 1 uM in presence of beta-NADPH measured for 60 mins by LC-MS/MS analysis; type: ADME, Microsome
[20] = Cmax in Sprague-Dawley rat at 1 mg/kg, iv measured for 24 hrs by LC-MS/MS analysis; type: ADME, organism-based; parameters: dose 1 mg/kg, time 24 hrs, route iv; details: in vivo
[21] = Elimination half life in Sprague-Dawley rat at 10 mg/kg, po measured for 30 hrs by LC-MS/MS analysis; type: ADME, organism-based; details: in vivo, read-out: beta t1/2 (converted)
HCT-116 [22] = experiment: Anti-tumor activity against human HCT-116 cells xenografted in BALB/c mouse assessed as reduction in tumor volume at 100 mg/kg, po qd for 21 days; type: functional, organism-based; details: time 21.0 day
[23] = MRT in Sprague-Dawley rat at 10 mg/kg, po measured for 30 hrs by LC-MS/MS analysis; type: ADME, organism-based; details: in vivo
[24] = Tmax in Sprague-Dawley rat at 10 mg/kg, po measured for 30 hrs by LC-MS/MS analysis; type: ADME, organism-based; details: in vivo
[25] = Half life in human liver microsomes at 1 uM in presence of beta-NADPH measured for 60 mins by LC-MS/MS analysis; type: ADME, Microsome
[26] = Half life in rat liver microsomes at 1 uM in presence of beta-NADPH measured for 60 mins by LC-MS/MS analysis; type: ADME, Microsome
[27] = Oral bioavailability in Sprague-Dawley rat at 10 mg/kg measured for 30 hrs by LC-MS/MS analysis; type: ADME, organism-based; details: in vivo
[28] = Intrinsic clearance in rat liver microsomes at 1 uM in presence of beta-NADPH measured for 60 mins by LC-MS/MS analysis; type: ADME, Microsome; details: read-out: CLH
[29] = Toxicity in BALB/c mouse xenografted with human HCT-116 cells assessed as body weight loss at 100 mg/kg, po measured on day 4; type: organism-based; details: in vivo, 96 h, time 4 day
[30] = Toxicity in BALB/c mouse xenografted with human HCT-116 cells assessed as side effects at 50 mg/kg, po qd for 21 days; type: organism-based; details: in vivo, 504 h, time 21 day
[31] = Toxicity in BALB/c mouse xenografted with human HCT-116 cells assessed as animals death at 100 mg/kg, po measured on day 8; type: organism-based; details: in vivo, 192 h, time 8 day
[32] = Toxicity in BALB/c mouse xenografted with human HCT-116 cells assessed as side effects at 100 mg/kg, po measured on day 4; type: organism-based; details: in vivo, 96 h, time 4 day
[33] = Toxicity in BALB/c mouse xenografted with human HCT-116 cells assessed as body weight loss at 50 mg/kg, po qd for 21 days; type: organism-based; details: in vivo, 504 h, time 21 day

Structure (SMILES): CON(C)C(=O)c1cccc2c1cc(C)n2-c1nc2c(c(NCc3cccc(B(O)O)c3)n1)CCC2
- IC50 [1]: 1220 nM

Structure (SMILES): Cc1cc2c(NC(=O)/C=C/c3ccccc3)cccc2n1-c1nc2c(c(NCc3cccc(O)c3)n1)CCC2
- IC50 [1]: 3510 nM

Structure (SMILES): Cc1cc2c(NC(=O)c3ccco3)cccc2n1-c1nc2c(c(NCc3cccc(O)c3)n1)CCC2
- IC50 [1]: 49 nM
- IC50 (HCT-116 [2]): 1200 nM

Structure (SMILES): Cc1cc2c(C(=N)N)cccc2n1-c1nc2c(c(NCc3cccc(O)c3)n1)CCC2
- IC50 [1]: 233 nM

Structure (SMILES): C=CC(=O)Nc1cccc2c1cc(C)n2-c1nc2c(c(NCc3cccc(O)c3)n1)CCC2
- IC50 [1]: 26 nM
- IC50 (HCT-116 [2]): 1200 nM

Structure (SMILES): COc1ccc(/C=C/C(=O)Nc2cccc3c2cc(C)n3-c2nc3c(c(NCc4cccc(O)c4)n2)CCC3)cc1
- IC50 [1]: 2470 nM

Structure (SMILES): Cc1cc2c(C(=N)NO)cccc2n1-c1nc2c(c(NCc3cccc(O)c3)n1)CCC2
- IC50 [1]: 35 nM
- IC50 (HCT-116 [2]): 1100 nM

Structure (SMILES): Cc1cc2c(C(N)=O)cccc2n1-c1nc2c(c(NCc3cccc(N)c3)n1)CCC2
- IC50 [1]: 154 nM

Structure (SMILES): Cc1cc2c(C(N)=O)cccc2n1-c1nc2c(c(NCc3cccc(O)c3)n1)CCC2
- AUC(0-t) at 30 h [3]: 283 ng·h/mL
- AUC(0-t) at 24 h [4]: 142 ng·h/mL
- half-life at 1 µM [5]: 34.8 min
- microsomal CLint at 1 µM [6]: 39.8 µL/min/mg
- microsomal CLint at 1 µM [7]: 58.2 µL/min/mg
- AUC(0-inf) [8]: 147 ng·h/mL
- microsomal CLint at 1 µM [9]: 48.2 µL/min/mg
- Activity [10]: Non-Toxic
- microsomal CLint at 1 µM [11]: 37.4 µL/min/mg
- Tmax [12]: 4.8 min
- half-life [13]: 168 min
- Activity [14]: Non-Toxic
- half-life at 1 µM [15]: 23.8 min
- MRT [16]: 67.2 min
- AUC(0-inf) [17]: 345 ng·h/mL
- Cmax [18]: 130 ng/mL
- half-life at 1 µM [19]: 28.8 min
- Cmax [20]: 284 ng/mL
- half-life [21]: 228 min
- IC50 [1]: 53 nM
- IC50 (HCT-116 [2]): 400 nM
- Activity (HCT-116 [22]): Active
- MRT [23]: 276 min
- Tmax [24]: 30 min
- half-life at 1 µM [25]: 37.1 min
- half-life at 1 µM [26]: 10.5 min
- bioavailability [27]: 23.5%
- microsomal CLint at 1 µM [28]: 132 µL/min/mg

Structure (SMILES): C/C=C/C(=O)Nc1cccc2c1cc(C)n2-c1nc2c(c(NCc3cccc(O)c3)n1)CCC2
- IC50 [1]: 96 nM
- IC50 (HCT-116 [2]): 2400 nM

Structure (SMILES): CCONC(=O)c1cccc2c1cc(C)n2-c1nc2c(c(NCc3cccc(B(O)O)c3)n1)CCC2
- IC50 [1]: 72 nM
- IC50 (HCT-116 [2]): 1400 nM

Structure (SMILES): CONC(=O)c1cccc2c1cc(C)n2-c1nc2c(c(NCc3cccc(O)c3)n1)CCC2
- AUC(0-t) at 30 h [3]: 108 ng·h/mL
- AUC(0-t) at 24 h [4]: 94.8 ng·h/mL
- AUC(0-inf) [8]: 108 ng·h/mL
- half-life [13]: 50.4 min
- MRT [16]: 73.8 min
- AUC(0-inf) [17]: 121 ng·h/mL
- Cmax [18]: 52.5 ng/mL
- half-life [21]: 153 min
- IC50 [1]: 48 nM
- IC50 (HCT-116 [2]): 300 nM
- MRT [23]: 201 min
- Tmax [24]: 30 min
- bioavailability [27]: 11.1%

Structure (SMILES): Cc1cc2c(NC(=O)c3cccs3)cccc2n1-c1nc2c(c(NCc3cccc(O)c3)n1)CCC2
- IC50 [1]: 185 nM

Structure (SMILES): Cc1cc2c(NS(C)(=O)=O)cccc2n1-c1nc2c(c(NCc3cccc(O)c3)n1)CCC2
- IC50 [1]: 97 nM
- IC50 (HCT-116 [2]): 800 nM

Structure (SMILES): CONC(=O)c1cccc2c1cc(C)n2-c1nc2c(c(NCc3cccc(B(O)O)c3)n1)CCC2
- IC50 [1]: 54 nM
- IC50 (HCT-116 [2]): 1000 nM

Structure (SMILES): CON(C)C(=O)c1cccc2c1cc(C)n2-c1nc2c(c(NCc3cccc(O)c3)n1)CCC2
- IC50 [1]: 863 nM

Structure (SMILES): Cc1cc2c(C(N)=O)cccc2n1-c1nc2c(c(NCc3ccccc3)n1)CCCN2
- AUC(0-t) at 30 h [3]: 779 ng·h/mL
- AUC(0-t) at 24 h [4]: 390 ng·h/mL
- half-life at 1 µM [5]: 33 min
- microsomal CLint at 1 µM [6]: 60 µL/min/mg
- microsomal CLint at 1 µM [7]: 203 µL/min/mg
- AUC(0-inf) [8]: 398 ng·h/mL
- microsomal CLint at 1 µM [9]: 176 µL/min/mg
- microsomal CLint at 1 µM [11]: 36.5 µL/min/mg
- Activity [29]: Toxic
- half-life [13]: 22.8 min
- Activity [30]: Non-Toxic
- half-life at 1 µM [15]: 9.8 min
- MRT [16]: 25.2 min
- AUC(0-inf) [17]: 796 ng·h/mL
- Cmax [18]: 444 ng/mL
- half-life at 1 µM [19]: 19.1 min
- Activity [31]: Toxic
- half-life [21]: 73.8 min
- IC50 [1]: 44 nM
- IC50 (HCT-116 [2]): 700 nM
- MRT [23]: 96 min
- Tmax [24]: 30 min
- Activity [32]: Toxic
- Activity [33]: Non-Toxic
- half-life at 1 µM [25]: 35.9 min
- half-life at 1 µM [26]: 7.9 min
- bioavailability [27]: 20%
- microsomal CLint at 1 µM [28]: 318 µL/min/mg

Structure (SMILES): CCONC(=O)c1cccc2c1cc(C)n2-c1nc2c(c(NCc3cccc(O)c3)n1)CCC2
- IC50 [1]: 31 nM
- IC50 (HCT-116 [2]): 600 nM

Structure (SMILES): Cc1cc2c(NC(=O)c3cscn3)cccc2n1-c1nc2c(c(NCc3cccc(O)c3)n1)CCC2
- IC50 [1]: 216 nM
